The values below come from paper PMC12155096 (International Journal of Molecular Sciences, 2025).

Molecules are shown by their SMILES. Where two headings read alike, the source gives them in different places.

One data set addresses human CYP2C19 (Homo sapiens, UniProt P33261). Description: biochemical.
Another data set deals with T1, human CYP1A2 (Homo sapiens, UniProt P05177).
T1 sequence (P05177 1-516): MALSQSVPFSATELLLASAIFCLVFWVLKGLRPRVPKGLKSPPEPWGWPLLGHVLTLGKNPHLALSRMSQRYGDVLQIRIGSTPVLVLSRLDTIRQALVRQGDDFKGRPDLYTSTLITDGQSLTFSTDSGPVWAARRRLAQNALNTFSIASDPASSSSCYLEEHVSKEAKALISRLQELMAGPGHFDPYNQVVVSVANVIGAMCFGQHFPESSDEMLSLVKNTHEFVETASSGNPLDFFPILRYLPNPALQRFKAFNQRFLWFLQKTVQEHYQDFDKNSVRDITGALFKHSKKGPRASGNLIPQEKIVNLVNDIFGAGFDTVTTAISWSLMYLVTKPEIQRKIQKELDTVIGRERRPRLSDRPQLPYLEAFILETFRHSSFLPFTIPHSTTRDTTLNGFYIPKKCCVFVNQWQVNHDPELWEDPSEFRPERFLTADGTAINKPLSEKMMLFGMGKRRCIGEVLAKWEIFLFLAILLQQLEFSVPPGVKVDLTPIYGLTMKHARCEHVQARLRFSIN
Put plainly: biochemical.

In the next data set the target is human CYP2D6 (Homo sapiens, UniProt P10635).
Sequence of human CYP2D6 (P10635 whole entry): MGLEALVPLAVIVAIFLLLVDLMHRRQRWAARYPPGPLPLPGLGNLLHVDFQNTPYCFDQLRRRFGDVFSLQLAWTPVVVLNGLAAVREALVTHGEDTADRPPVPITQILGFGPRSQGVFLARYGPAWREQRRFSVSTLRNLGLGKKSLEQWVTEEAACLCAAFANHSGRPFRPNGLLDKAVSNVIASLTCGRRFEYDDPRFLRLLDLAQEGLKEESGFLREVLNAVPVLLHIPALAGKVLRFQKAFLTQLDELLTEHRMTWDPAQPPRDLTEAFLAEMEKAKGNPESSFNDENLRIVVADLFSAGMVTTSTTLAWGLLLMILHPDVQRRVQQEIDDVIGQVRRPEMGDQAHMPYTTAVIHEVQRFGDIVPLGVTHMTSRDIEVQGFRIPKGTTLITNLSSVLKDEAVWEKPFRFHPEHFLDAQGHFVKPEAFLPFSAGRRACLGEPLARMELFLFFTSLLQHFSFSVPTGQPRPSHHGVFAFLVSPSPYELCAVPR
Another data set deals with CYP3A4 (Homo sapiens, UniProt P08684). Put plainly: biochemical.
Sequence of CYP3A4 (P08684 whole entry): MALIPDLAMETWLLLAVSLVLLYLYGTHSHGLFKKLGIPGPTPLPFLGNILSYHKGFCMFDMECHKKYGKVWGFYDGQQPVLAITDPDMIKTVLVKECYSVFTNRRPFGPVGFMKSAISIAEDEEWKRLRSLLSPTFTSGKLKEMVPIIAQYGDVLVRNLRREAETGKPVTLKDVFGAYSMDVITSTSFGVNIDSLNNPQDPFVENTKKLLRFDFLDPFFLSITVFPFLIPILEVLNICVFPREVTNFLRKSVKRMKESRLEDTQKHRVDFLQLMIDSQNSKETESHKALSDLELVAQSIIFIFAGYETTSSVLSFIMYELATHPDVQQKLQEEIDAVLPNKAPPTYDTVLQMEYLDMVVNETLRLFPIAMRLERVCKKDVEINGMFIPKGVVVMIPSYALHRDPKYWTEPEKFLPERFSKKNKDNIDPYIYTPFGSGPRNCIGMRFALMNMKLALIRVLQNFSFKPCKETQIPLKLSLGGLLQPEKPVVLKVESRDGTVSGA
In another data set the target is human CYP2C9 (Homo sapiens, UniProt P11712). Put plainly: biochemical.
Sequence of human CYP2C9 (P11712 whole entry): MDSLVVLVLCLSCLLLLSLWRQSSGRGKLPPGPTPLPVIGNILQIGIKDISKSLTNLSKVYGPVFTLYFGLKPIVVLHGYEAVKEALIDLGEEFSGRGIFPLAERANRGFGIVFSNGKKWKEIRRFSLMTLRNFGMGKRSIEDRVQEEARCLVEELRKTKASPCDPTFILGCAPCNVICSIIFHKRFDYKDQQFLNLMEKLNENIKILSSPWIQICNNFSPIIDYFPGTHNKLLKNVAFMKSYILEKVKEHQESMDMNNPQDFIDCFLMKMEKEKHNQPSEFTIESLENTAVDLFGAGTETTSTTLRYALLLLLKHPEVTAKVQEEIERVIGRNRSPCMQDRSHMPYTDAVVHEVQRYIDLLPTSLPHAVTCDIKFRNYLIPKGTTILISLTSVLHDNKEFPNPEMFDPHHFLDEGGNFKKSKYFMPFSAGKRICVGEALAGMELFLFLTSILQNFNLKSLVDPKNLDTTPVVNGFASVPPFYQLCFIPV
The mark [1] stands for this setting: CYP2C19 AC50 (half-maximal activity concentration).
Setting [2] is: CYP1A2 AC50 (half-maximal activity concentration).
The mark [3] stands for this setting: CYP3A4 AC50 (half-maximal activity concentration).
Setting [4] is: CYP2C9 AC50 (half-maximal activity concentration).

Sequence of human CYP2C19 (P33261 whole entry): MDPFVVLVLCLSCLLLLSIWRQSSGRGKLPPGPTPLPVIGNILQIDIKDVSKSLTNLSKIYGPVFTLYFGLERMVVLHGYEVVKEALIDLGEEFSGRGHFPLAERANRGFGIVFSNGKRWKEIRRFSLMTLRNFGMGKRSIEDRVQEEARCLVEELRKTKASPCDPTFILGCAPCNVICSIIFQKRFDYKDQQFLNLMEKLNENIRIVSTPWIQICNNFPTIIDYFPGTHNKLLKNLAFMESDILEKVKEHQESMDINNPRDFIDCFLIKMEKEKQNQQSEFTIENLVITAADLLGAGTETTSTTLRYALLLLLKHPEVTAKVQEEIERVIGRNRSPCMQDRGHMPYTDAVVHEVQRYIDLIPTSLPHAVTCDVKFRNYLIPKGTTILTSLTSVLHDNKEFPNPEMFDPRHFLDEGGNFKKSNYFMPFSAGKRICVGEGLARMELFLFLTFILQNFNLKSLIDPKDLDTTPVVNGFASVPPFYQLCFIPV

The AC50 is the concentration giving half of the maximal activity seen. Read a low AC50 as greater potency. `CCOC(=O)Cc1cccc2ccccc12` [Ethyl 1-naphthaleneacetate]: the AC50 at human CYP2C19 turned out to be 25.5 µM; on human CYP1A2, 16.5 µM; at CYP3A4, 27.5 µM; at human CYP2C9, 41.5 µM. Further, the “CYP2D6 AC50 (half-maximal activity concentration)” value (“CYP2D6 AC50” for short) at human CYP2D6 was “Inactive”.
`CC(C)N(C(=O)COc1nnc(C(F)(F)F)s1)c1ccc(F)cc1` [Flufenacet]: the AC50 at human CYP2C19 (setting [1]) was determined as 3.4 µM; at human CYP1A2 (setting [2]), 37 µM; at CYP3A4 (setting [3]), 19.3 µM; at human CYP2C9 (setting [4]), 35.6 µM. Also, the “CYP2D6 AC50” value at human CYP2D6 is on record as “Inactive”.
In the same order, the values of `O=P(Oc1ccccc1)(Oc1ccccc1)Oc1ccccc1` [Triphenyl phosphate] are 6.53 µM, 10.8 µM, 6.42 µM, 6.87 µM and “Inactive”.
For `COC(=O)C(C)Oc1ccc(Oc2ccc(Cl)cc2Cl)cc1` (centres unmarked) [Diclofop-methyl] the same measures were 6.41 µM, 38.5 µM, 12.8 µM, 27.5 µM and “Inconclusive”.
In the same order, the values of `O=C(c1ccc(Cl)cc1)c1ccc(Cl)cc1` [4,4'-Dichlorobenzophenone] are 1.67 µM, 2.34 µM, 11 µM, 6.1 µM and “Inactive”.
On to `BrC(Br)C(Br)(Br)Br` [Pentabromoethane], for which the AC50 on human CYP2C19 (setting [1]) came to 48.6 µM; on human CYP1A2 (setting [2]) it was 33.2 µM; at CYP3A4 (setting [3]), 16.1 µM; on human CYP2C9 (setting [4]), 22.7 µM. Moreover, on human CYP2D6, the “CYP2D6 AC50” value is “Inconclusive inhibitor”.
In the same order, the values of `O=[N+]([O-])c1cccc2ccccc12` [1-Nitronaphthalene] are 59.8 µM, 2.96 µM, 15.6 µM, 31.2 µM and “Inactive”.
For `c1cnc2c(c1)ccc1cccnc12` [1,10-Phenanthroline] the same measures were 11.9 µM, 11.7 µM, 69.5 µM, 4.65 µM and “Inconclusive inhibitor”.
For the compound `CCOC(=O)C1OC1(C)c1ccccc1` (centres unmarked) [Ethyl methylphenylglycidate], the half-maximal activity concentration (AC50) is 45.4 µM on human CYP2C19 (setting [1]), 34.6 µM at human CYP1A2 (setting [2]), 37.7 µM on CYP3A4 (setting [3]) and 61.4 µM on human CYP2C9 (setting [4]). Also, the “CYP2D6 AC50” value at human CYP2D6 is given as “Inconclusive inhibitor”.
With `CC(C)(C)c1ccc(CSc2cnn(C(C)(C)C)c(=O)c2Cl)cc1` [Pyridaben], the AC50 at human CYP2C19 (setting [1]) amounted to 8.29 µM; at human CYP1A2 (setting [2]), 25.6 µM; on CYP3A4 (setting [3]), 4.7 µM; at human CYP2C9 (setting [4]) it was 7.2 µM. Moreover, on human CYP2D6, the “CYP2D6 AC50” value was “Inactive”.
For `N#Cc1c[nH]cc1-c1cccc2c1OC(F)(F)O2` [Fludioxonil], the concentration at half-maximal activity (AC50) at human CYP2C19 (setting [1]) was determined as 5.3 µM; at human CYP1A2 (setting [2]), 1.53 µM; on CYP3A4 (setting [3]) it was 5.11 µM; on human CYP2C9 (setting [4]), 18.6 µM. The “CYP2D6 AC50” value on human CYP2D6 is recorded as “Inactive”.
In the same order, the values of `O=[N+]([O-])C(Br)(CO)CO` [Bronopol] are 5.81 µM, 14.2 µM, 5.19 µM, 4.61 µM and “Inactive”.
`CCC1OCC(COc2ccc(Oc3ccccc3)cc2)O1` (centres unmarked) [Diofenolan]: the AC50 on human CYP2C19 came to 21 µM; at human CYP1A2, 30.8 µM; at CYP3A4, 35.7 µM; on human CYP2C9, 29.4 µM. The “CYP2D6 AC50” value at human CYP2D6 is “Inconclusive inhibitor”.
In the case of `N#CCCC(Br)(C#N)CBr` (centres unmarked) [1,2-Dibromo-2,4-dicyanobutane], the AC50 worked out at 11.5 µM on human CYP2C19 (setting [1]), 14.6 µM on human CYP1A2 (setting [2]), 9.92 µM on CYP3A4 (setting [3]) and 8.43 µM on human CYP2C9 (setting [4]). In addition, on human CYP2D6, the “CYP2D6 AC50” value was “Inconclusive inhibitor”.
On to `O=C(/C=C/c1ccccc1)OCc1ccccc1` [Benzyl cinnamate], for which the AC50 on human CYP2C19 (setting [1]) was 13.6 µM; at human CYP1A2 (setting [2]) it was 7.8 µM; at CYP3A4 (setting [3]) it was 21.5 µM; on human CYP2C9 (setting [4]), 12.4 µM. On human CYP2D6, the “CYP2D6 AC50” value was “Inactive”.
Take `O=C(NC(=O)c1c(F)cccc1F)Nc1cc(Cl)c(F)c(Cl)c1F` [Teflubenzuron]: the AC50 is 69.2 µM at human CYP2C19 (setting [1]), 32.5 µM at human CYP1A2 (setting [2]), 57.7 µM on CYP3A4 (setting [3]) and 46.5 µM at human CYP2C9 (setting [4]). Moreover, on human CYP2D6, the “CYP2D6 AC50” value was “Inactive”.
In the case of `CC(C)N(Cc1ccccc1)C(=O)C(C)(C)C` [Butam], the AC50 on human CYP2C19 (setting [1]) came out at 15.1 µM; at human CYP1A2 (setting [2]), 32.6 µM; on CYP3A4 (setting [3]), 9.61 µM; on human CYP2C9 (setting [4]) it was 34.3 µM. In addition, the “CYP2D6 AC50” value on human CYP2D6 was “Inactive”.
For `Brc1ccc(Oc2ccc(Br)cc2)cc1` [4,4'-Dibromodiphenyl ether] the same measures were 3.02 µM, 18.8 µM, 28.4 µM, 24.6 µM and “Inactive”.
As to `CCCCOC(=O)CCCCC(=O)OCCCC` [Dibutyl hexanedioate], the AC50 was determined as 57.6 µM on human CYP2C19, 41.7 µM on human CYP1A2, 15.4 µM on CYP3A4 and 16.1 µM on human CYP2C9. The “CYP2D6 AC50” value on human CYP2D6 is on record as “Inactive”.
As to `CCCCCCC(C=O)=Cc1ccccc1` [2-Benzylideneoctanal], the half-maximal activity concentration (AC50) was determined as 25.6 µM on human CYP2C19 (setting [1]), 13.8 µM at human CYP1A2 (setting [2]), 7.81 µM at CYP3A4 (setting [3]) and 31.1 µM on human CYP2C9 (setting [4]). The “CYP2D6 AC50” value on human CYP2D6 is listed as “Inactive”.
In the same order, the values of `IC(I)=C(I)I` [Tetraiodoethene] are 9.09 µM, 13 µM, 19.5 µM, 3.57 µM and “Inactive”.
In the same order, the values of `CCCCCC1C(=O)CCC1CC(=O)OC` (centres unmarked) [Methyl dihydrojasmonate] are 2.53 µM, 27.2 µM, 8.73 µM, 28.4 µM and “Inconclusive inhibitor”.
For `O=C(C=Cc1ccccc1)OCC=Cc1ccccc1` [3-Phenyl-2-propen-1-yl 3-phenylacrylate] the same measures were 31.8 µM, 25.3 µM, 24.9 µM, 29.4 µM and “Inactive”.
As to `C[Si](Cl)(c1ccccc1)c1ccccc1` [Chloro(methyl)diphenylsilane], the AC50 stood at 2.26 µM at human CYP2C19 (setting [1]), 32.2 µM at human CYP1A2 (setting [2]), 23.4 µM on CYP3A4 (setting [3]) and 3.53 µM at human CYP2C9 (setting [4]). Further, the “CYP2D6 AC50” value on human CYP2D6 was “Inconclusive inhibitor”.
For `O=C(c1ccccc1)C1CCCCC1` [Cyclohexylphenylketone] the same measures were 44.9 µM, 37.4 µM, 29.2 µM, 47.5 µM and “Inactive”.
As to `CN(C)C(=O)C(c1ccccc1)c1ccccc1` [Diphenamid], the AC50 on human CYP2C19 (setting [1]) came out at 53.7 µM; on human CYP1A2 (setting [2]), 50.2 µM; at CYP3A4 (setting [3]), 31.2 µM; on human CYP2C9 (setting [4]) it was 38.4 µM. Also, the “CYP2D6 AC50” value on human CYP2D6 is “Inactive”.
For `O=[N+]([O-])c1ccccc1-c1ccccc1` [2-Nitro-1,1'-biphenyl] the same measures were 30.4 µM, 1.66 µM, 34.3 µM, 22.6 µM and “Inactive”.
Turning to `O=C(c1ccccc1)c1ccc(Cl)cc1` [4-Chlorobenzophenone], the AC50 amounted to 14.7 µM on human CYP2C19, 3.84 µM at human CYP1A2, 35.6 µM at CYP3A4 and 50 µM at human CYP2C9. The “CYP2D6 AC50” value at human CYP2D6 is recorded as “Inconclusive inhibitor”.
Turning to `CC(C)OC(=O)c1ccccc1C(=O)OC(C)C` [Diisopropyl phthalate], the AC50 on human CYP2C19 (setting [1]) was found to be 53.2 µM; on human CYP1A2 (setting [2]), 3.31 µM; on CYP3A4 (setting [3]) it was 31.9 µM; on human CYP2C9 (setting [4]) it was 50.4 µM. Further, on human CYP2D6, the “CYP2D6 AC50” value is recorded as “Inconclusive inhibitor”.
For `Nc1cc(Cl)cc(Cl)c1` [3,5-Dichloroaniline] the same measures were 17.7 µM, 30.7 µM, 43.2 µM, 74.5 µM and “Inactive”.
Regarding `N#Cc1cc(I)c(O)c(I)c1` [Ioxynil], the AC50 turned out to be 83.2 µM on human CYP2C19 (setting [1]), 46.2 µM on human CYP1A2 (setting [2]), 38.5 µM at CYP3A4 (setting [3]) and 22.4 µM on human CYP2C9 (setting [4]). Moreover, on human CYP2D6, the “CYP2D6 AC50” value is reported as “Inactive”.
